Experimental data published in ChEMBL document CHEMBL4507290 (2021).

Tests used:
[1] = target: Serine/threonine-protein kinase PLK2 (Homo sapiens) (UniProt Q9NYY3); conditions: Compound concentration 1000.0 nM
[2] = target: Serine/threonine-protein kinase ULK3 (Homo sapiens) (UniProt Q6PHR2); conditions: Compound concentration 1000.0 nM
[3] = target: Aurora kinase A (Homo sapiens) (UniProt O14965); conditions: Compound concentration 1000.0 nM
[4] = target: Mitogen-activated protein kinase 10 (Homo sapiens) (UniProt P53779); conditions: Compound concentration 1000.0 nM
[5] = target: Dual serine/threonine and tyrosine protein kinase (Homo sapiens) (UniProt Q6XUX3); conditions: Compound concentration 1000.0 nM
[6] = tested on: Epidermal growth factor receptor (Homo sapiens), P00533 [L858R]; conditions: Compound concentration 1000.0 nM
[7] = target: Ephrin type-B receptor 1 (Homo sapiens) (UniProt P54762); conditions: Compound concentration 1000.0 nM
[8] = target: Dual specificity mitogen-activated protein kinase kinase 6 (Homo sapiens) (UniProt P52564); conditions: Compound concentration 1000.0 nM
[9] = target: Sodium-dependent serotonin transporter (Homo sapiens) (UniProt P31645); conditions: Compound concentration 10.0 uM
[10] = target: Dual specificity mitogen-activated protein kinase kinase 3 (Homo sapiens) (UniProt P46734); conditions: Compound concentration 1000.0 nM
[11] = target: Tyrosine-protein kinase ABL2 (Homo sapiens) (UniProt P42684); conditions: Compound concentration 1000.0 nM
[12] = target: Serine/threonine-protein kinase Nek7 (Homo sapiens) (UniProt Q8TDX7); conditions: Compound concentration 1000.0 nM
[13] = tested on: Phosphatidylinositol 4,5-bisphosphate 3-kinase catalytic subunit alpha isoform (Homo sapiens), P42336 [E545K]; conditions: Compound concentration 1000.0 nM
[14] = target: Casein kinase I isoform gamma-2 (Homo sapiens) (UniProt P78368); conditions: Compound concentration 1000.0 nM
[15] = target: Insulin-like growth factor 1 receptor (Homo sapiens) (UniProt P08069); conditions: Compound concentration 1000.0 nM
[16] = target: Serine/threonine-protein kinase N2 (Homo sapiens) (UniProt Q16513); conditions: Compound concentration 1000.0 nM
[17] = target: Tyrosine-protein kinase Blk (Homo sapiens) (UniProt P51451); conditions: Compound concentration 1000.0 nM
[18] = target: Ankyrin repeat and protein kinase domain-containing protein 1 (Homo sapiens) (UniProt Q8NFD2); conditions: Compound concentration 1000.0 nM
[19] = target: Dual specificity protein kinase CLK3 (Homo sapiens) (UniProt P49761); conditions: Compound concentration 1000.0 nM
[20] = target: Activin receptor type-1 (Homo sapiens) (UniProt Q04771); conditions: Compound concentration 1000.0 nM
[21] = target: Serine/threonine-protein kinase N1 (Homo sapiens) (UniProt Q16512); conditions: Compound concentration 1000.0 nM
[22] = target: 5'-AMP-activated protein kinase catalytic subunit alpha-1 (Homo sapiens) (UniProt Q13131); conditions: Compound concentration 1000.0 nM
[23] = target: Mast/stem cell growth factor receptor Kit (Homo sapiens) (UniProt P10721); conditions: Compound concentration 1000.0 nM
[24] = target: Phosphorylase b kinase gamma catalytic chain, skeletal muscle/heart isoform (Homo sapiens) (UniProt Q16816); conditions: Compound concentration 1000.0 nM
[25] = target: Serine/threonine-protein kinase STK11 (Homo sapiens) (UniProt Q15831); conditions: Compound concentration 1000.0 nM
[26] = target: Cyclin-G-associated kinase (Homo sapiens) (UniProt O14976); conditions: Compound concentration 1000.0 nM
[27] = target: Vascular endothelial growth factor receptor 2 (Homo sapiens) (UniProt P35968); conditions: Compound concentration 1000.0 nM
[28] = target: Tyrosine-protein kinase Mer (Homo sapiens) (UniProt Q12866); conditions: Compound concentration 1000.0 nM
[29] = target: Myosin-IIIa (Homo sapiens) (UniProt Q8NEV4); conditions: Compound concentration 1000.0 nM
[30] = target: Tyrosine-protein kinase SYK (Homo sapiens) (UniProt P43405); conditions: Compound concentration 1000.0 nM
[31] = target: Sigma intracellular receptor 2 (Homo sapiens) (UniProt Q5BJF2); conditions: Compound concentration 10.0 uM
[32] = target: Cyclin-dependent kinase 13 (Homo sapiens) (UniProt Q14004); conditions: Compound concentration 1000.0 nM
[33] = target: Serine/threonine-protein kinase TAO1 (Homo sapiens) (UniProt Q7L7X3); conditions: Compound concentration 1000.0 nM
[34] = target: Tyrosine-protein kinase Fyn (Homo sapiens) (UniProt P06241); conditions: Compound concentration 1000.0 nM
[35] = target: Phosphatidylinositol 3-kinase C2 domain-containing subunit gamma (Homo sapiens) (UniProt O75747); conditions: Compound concentration 1000.0 nM
[36] = target: Serine/threonine-protein kinase PAK 1 (Homo sapiens) (UniProt Q13153); conditions: Compound concentration 1000.0 nM
[37] = target: Calcium/calmodulin-dependent protein kinase type 1G (Homo sapiens) (UniProt Q96NX5); conditions: Compound concentration 1000.0 nM
[38] = target: STE20-like serine/threonine-protein kinase (Homo sapiens) (UniProt Q9H2G2); conditions: Compound concentration 1000.0 nM
[39] = tested on: Mast/stem cell growth factor receptor Kit (Homo sapiens), P10721 [D816V]; conditions: Compound concentration 1000.0 nM
[40] = target: Phosphatidylinositol 4-phosphate 5-kinase type-1 alpha (Homo sapiens) (UniProt Q99755); conditions: Compound concentration 1000.0 nM
[41] = target: Mitogen-activated protein kinase kinase kinase 5 (Homo sapiens) (UniProt Q99683); conditions: Compound concentration 1000.0 nM
[42] = target: Protein-tyrosine kinase 2-beta (Homo sapiens) (UniProt Q14289); conditions: Compound concentration 1000.0 nM
[43] = target: Dual specificity protein kinase CLK2 (Homo sapiens) (UniProt P49760); conditions: Compound concentration 1000.0 nM
[44] = tested on: Receptor-type tyrosine-protein kinase FLT3 (Homo sapiens), P36888 [UNDEFINED MUTATION]; conditions: Compound concentration 1000.0 nM
[45] = target: Phosphatidylinositol 4,5-bisphosphate 3-kinase catalytic subunit beta isoform (Homo sapiens) (UniProt P42338); conditions: Compound concentration 1000.0 nM

Sequence of Aurora kinase A (Homo sapiens) (O14965 whole entry): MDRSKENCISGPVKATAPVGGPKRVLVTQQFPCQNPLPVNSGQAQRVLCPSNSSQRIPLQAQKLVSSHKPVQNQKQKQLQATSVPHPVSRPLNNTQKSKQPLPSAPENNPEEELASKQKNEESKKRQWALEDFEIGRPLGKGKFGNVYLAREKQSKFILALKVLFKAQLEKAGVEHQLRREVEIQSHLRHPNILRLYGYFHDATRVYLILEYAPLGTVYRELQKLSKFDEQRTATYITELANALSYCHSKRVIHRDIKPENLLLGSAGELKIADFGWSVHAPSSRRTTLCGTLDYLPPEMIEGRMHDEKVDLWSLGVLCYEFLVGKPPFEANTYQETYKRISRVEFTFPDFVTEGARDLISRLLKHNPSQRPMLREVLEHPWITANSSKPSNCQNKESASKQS
Sequence of Serine/threonine-protein kinase Nek7 (Homo sapiens) (Q8TDX7 whole entry, looked up, canonical isoform): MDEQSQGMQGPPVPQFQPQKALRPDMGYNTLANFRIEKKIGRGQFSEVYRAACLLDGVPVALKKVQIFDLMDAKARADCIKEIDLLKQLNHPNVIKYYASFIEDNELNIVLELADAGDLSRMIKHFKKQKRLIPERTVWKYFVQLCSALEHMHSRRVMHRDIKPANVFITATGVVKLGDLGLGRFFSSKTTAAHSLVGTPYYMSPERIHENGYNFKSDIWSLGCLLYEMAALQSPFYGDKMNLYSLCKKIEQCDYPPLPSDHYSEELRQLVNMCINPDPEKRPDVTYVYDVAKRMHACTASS
Sequence of Serine/threonine-protein kinase N1 (Homo sapiens) (Q16512 2-942 limits assumed): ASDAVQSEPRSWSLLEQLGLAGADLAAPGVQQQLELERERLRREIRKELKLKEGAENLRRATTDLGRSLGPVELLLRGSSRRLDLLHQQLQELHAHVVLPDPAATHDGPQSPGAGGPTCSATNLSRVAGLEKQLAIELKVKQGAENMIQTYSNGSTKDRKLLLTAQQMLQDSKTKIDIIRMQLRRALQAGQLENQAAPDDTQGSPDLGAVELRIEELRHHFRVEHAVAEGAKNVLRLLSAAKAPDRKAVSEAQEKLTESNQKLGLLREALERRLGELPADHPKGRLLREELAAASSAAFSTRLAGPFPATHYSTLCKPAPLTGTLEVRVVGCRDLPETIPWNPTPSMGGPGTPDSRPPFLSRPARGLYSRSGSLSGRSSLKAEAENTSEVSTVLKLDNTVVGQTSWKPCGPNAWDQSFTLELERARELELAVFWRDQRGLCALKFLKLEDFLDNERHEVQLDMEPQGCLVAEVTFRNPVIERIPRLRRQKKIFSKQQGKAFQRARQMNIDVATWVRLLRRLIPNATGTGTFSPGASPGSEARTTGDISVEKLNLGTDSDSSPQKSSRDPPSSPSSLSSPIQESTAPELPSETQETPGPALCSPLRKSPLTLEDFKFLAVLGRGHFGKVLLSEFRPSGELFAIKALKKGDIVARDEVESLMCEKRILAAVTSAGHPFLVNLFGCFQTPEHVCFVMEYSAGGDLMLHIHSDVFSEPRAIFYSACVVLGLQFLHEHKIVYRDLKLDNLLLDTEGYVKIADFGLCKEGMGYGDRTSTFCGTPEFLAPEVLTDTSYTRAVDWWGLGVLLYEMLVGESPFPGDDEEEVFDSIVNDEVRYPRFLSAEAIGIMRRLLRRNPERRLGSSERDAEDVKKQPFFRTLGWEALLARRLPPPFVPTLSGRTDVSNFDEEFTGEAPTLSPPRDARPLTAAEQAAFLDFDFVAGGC
Sequence of Mitogen-activated protein kinase kinase kinase 5 (Homo sapiens) (Q99683 whole entry): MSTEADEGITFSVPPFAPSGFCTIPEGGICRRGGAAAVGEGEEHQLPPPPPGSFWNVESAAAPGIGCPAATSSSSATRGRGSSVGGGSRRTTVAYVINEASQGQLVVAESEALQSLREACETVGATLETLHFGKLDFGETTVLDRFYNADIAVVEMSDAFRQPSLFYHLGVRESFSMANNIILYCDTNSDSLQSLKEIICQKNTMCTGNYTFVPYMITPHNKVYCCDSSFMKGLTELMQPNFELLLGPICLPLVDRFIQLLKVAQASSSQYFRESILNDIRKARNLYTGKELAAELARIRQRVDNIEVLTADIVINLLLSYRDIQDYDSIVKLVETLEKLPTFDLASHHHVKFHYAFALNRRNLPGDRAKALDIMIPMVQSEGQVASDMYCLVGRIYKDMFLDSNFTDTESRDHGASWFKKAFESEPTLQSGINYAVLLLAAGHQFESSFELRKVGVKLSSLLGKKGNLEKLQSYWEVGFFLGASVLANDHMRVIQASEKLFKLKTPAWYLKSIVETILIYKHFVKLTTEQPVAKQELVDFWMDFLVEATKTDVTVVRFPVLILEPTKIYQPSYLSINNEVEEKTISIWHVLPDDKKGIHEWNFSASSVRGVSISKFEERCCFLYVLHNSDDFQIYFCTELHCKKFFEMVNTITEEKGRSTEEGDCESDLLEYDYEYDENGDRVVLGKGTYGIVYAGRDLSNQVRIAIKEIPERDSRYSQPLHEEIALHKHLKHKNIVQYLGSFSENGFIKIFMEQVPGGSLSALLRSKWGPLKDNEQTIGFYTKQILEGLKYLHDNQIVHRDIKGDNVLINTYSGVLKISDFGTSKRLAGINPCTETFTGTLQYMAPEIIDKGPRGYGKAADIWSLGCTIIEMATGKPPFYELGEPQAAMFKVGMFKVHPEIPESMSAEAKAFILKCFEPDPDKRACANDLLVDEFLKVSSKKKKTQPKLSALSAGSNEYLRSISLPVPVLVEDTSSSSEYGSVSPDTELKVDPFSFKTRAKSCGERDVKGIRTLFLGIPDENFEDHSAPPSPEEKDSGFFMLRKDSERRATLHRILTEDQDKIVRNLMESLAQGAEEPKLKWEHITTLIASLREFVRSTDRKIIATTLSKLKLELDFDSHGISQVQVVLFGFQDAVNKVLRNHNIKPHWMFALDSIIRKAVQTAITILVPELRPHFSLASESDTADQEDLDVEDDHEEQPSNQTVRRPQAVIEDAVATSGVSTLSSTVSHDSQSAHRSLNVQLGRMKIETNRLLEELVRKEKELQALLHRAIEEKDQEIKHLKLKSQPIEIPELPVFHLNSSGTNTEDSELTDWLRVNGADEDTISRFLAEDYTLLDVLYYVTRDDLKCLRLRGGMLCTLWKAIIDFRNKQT
Sequence of Sodium-dependent serotonin transporter (Homo sapiens) (P31645 whole entry, looked up): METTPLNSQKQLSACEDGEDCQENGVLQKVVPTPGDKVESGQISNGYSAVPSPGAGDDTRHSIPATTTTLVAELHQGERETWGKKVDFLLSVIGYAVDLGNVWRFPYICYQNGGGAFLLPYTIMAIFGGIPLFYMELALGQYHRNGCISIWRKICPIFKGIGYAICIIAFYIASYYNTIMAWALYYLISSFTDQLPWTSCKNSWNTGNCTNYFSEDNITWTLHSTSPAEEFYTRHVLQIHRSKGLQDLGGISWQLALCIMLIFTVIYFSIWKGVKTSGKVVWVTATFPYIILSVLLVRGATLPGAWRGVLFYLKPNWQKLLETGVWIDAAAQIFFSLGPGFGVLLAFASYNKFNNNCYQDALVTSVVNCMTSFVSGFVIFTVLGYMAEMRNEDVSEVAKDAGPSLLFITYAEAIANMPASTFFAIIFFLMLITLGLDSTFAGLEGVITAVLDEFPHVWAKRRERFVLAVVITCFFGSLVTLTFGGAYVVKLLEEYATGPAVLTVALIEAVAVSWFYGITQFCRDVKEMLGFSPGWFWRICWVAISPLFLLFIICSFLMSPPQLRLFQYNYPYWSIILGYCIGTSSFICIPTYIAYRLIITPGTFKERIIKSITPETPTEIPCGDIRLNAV
Sequence of Dual specificity mitogen-activated protein kinase kinase 6 (Homo sapiens) (P52564 whole entry): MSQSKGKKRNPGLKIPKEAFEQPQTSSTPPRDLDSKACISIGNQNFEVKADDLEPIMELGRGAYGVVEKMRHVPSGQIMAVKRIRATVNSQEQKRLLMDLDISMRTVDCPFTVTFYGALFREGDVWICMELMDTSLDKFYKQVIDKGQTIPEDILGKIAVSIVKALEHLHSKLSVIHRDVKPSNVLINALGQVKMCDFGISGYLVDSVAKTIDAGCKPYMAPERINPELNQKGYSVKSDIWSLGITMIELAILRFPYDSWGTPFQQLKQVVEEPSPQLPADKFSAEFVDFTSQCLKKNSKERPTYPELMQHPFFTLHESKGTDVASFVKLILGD
Sequence of Tyrosine-protein kinase Mer (Homo sapiens) (Q12866 whole entry): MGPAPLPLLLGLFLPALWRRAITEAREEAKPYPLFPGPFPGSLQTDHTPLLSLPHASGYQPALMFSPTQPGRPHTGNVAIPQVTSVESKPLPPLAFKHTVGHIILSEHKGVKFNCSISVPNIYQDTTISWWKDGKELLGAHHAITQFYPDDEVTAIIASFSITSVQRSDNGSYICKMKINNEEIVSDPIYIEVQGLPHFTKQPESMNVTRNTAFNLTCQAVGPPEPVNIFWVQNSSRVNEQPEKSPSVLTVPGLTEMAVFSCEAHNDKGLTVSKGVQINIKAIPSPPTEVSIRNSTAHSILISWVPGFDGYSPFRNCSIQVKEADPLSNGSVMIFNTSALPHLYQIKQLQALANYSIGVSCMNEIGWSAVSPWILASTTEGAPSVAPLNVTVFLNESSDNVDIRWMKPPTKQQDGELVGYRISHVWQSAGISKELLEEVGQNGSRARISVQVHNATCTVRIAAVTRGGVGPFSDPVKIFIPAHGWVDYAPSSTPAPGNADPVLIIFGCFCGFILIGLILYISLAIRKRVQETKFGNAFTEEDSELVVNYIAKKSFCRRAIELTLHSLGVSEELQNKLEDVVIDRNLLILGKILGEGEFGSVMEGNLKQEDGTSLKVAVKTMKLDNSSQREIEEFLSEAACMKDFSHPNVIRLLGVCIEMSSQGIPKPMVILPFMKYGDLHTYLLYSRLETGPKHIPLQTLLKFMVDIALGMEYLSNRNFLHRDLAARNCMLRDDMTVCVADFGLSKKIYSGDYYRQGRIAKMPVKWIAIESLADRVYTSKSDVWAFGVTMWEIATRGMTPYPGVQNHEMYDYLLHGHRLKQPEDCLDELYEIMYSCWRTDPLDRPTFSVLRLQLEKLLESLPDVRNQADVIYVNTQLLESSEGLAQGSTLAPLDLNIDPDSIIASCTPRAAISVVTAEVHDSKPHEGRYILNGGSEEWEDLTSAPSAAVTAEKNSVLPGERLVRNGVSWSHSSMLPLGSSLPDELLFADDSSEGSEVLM

CN([C@@H]1CCc2c(CC(=O)O)c3ccccc3n2C1)S(=O)(=O)c1ccc(F)cc1 [MK-7246]
inactive: residual activity [1] 92% | residual activity [2] 80% | residual activity [3] 100% | residual activity [4] 100% | residual activity [5] 82% | residual activity [6] 93% | residual activity [7] 100% | residual activity [8] 100% | inhibition [9] 9.29% | residual activity [10] 84% | residual activity [11] 100% | residual activity [12] 100% | residual activity [13] 86% | residual activity [14] 100% | residual activity [15] 100% | residual activity [16] 100% | residual activity [17] 100% | residual activity [18] 100% | residual activity [19] 97% | residual activity [20] 100% | residual activity [21] 83% | residual activity [22] 100% | residual activity [23] 100% | residual activity [24] 100% | residual activity [25] 56% | residual activity [26] 100% | residual activity [27] 82% | residual activity [28] 100% | residual activity [29] 100% | residual activity [30] 100% | inhibition [31] -9.73% | residual activity [32] 95% | residual activity [33] 93% | residual activity [34] 77% | residual activity [35] 95% | residual activity [36] 96% | residual activity [37] 100% | residual activity [38] 100% | residual activity [39] 100% | residual activity [40] 100% | residual activity [41] 100% | residual activity [42] 100% | residual activity [43] 94% | residual activity [44] 95% | residual activity [45] 88%

CN([C@@H]1CCc2c(CC(=O)O)c3cc(S(C)(=O)=O)ccc3n2C1)S(=O)(=O)c1ccc(F)cc1
inactive: residual activity [1] 90% | residual activity [2] 79% | residual activity [3] 100% | residual activity [4] 100% | residual activity [5] 77% | residual activity [6] 91% | residual activity [7] 100% | residual activity [8] 100% | inhibition [9] 5.16% | residual activity [10] 88% | residual activity [11] 100% | residual activity [12] 98% | residual activity [13] 84% | residual activity [14] 100% | residual activity [15] 98% | residual activity [16] 100% | residual activity [17] 99% | residual activity [18] 96% | residual activity [19] 100% | residual activity [20] 90% | residual activity [21] 90% | residual activity [22] 85% | residual activity [23] 86% | residual activity [24] 100% | residual activity [25] 69% | residual activity [26] 93% | residual activity [27] 85% | residual activity [28] 100% | residual activity [29] 100% | residual activity [30] 100% | inhibition [31] -9.3% | residual activity [32] 86% | residual activity [33] 95% | residual activity [34] 99% | residual activity [35] 82% | residual activity [36] 95% | residual activity [37] 100% | residual activity [38] 100% | residual activity [39] 95% | residual activity [40] 100% | residual activity [41] 90% | residual activity [42] 100% | residual activity [43] 100% | residual activity [44] 91% | residual activity [45] 100%
